Consider 11 compounds from ChEMBL document CHEMBL5113377, “Development of Selective FXIa Inhibitors Based on Cyclic Peptides and Their Application for Safe Anticoagulation” (J Med Chem, 2021).

pKi: −log10 of the molar value. *1 amine or outer side, *2 acyl side, *3 side chain or, on linkers, in order; H or OH if unused. Where a SMILES comes first, the peptide text is derived from it. Bridges are numbered along the chain shown (N, C = ends). CH2COCH2 = O=C(C[*:1])C[*:2]; X1 = C(=C\C[*:2])/C[*:1]

Data set [1] has as its system Plasma. The experiment in a line: Anticoagulant activity in CaCl2-activated human plasma assessed as fold prolongation of activated partial thromboplastin time at 30 uM relative to control. In kind it is functional.
The next data set addresses Coagulation factor XI (Homo sapiens, UniProt P03951). The experiment in a line: Inhibition of biotinylated human FXIa assessed as inhibition of p-nitroaniline release using Pyr-Pro-Arg-pNA as substrate measured for 20 mins.
The species entered for data set [2] is Homo sapiens. In words: Selectivity for biotinylated human FXIa over uPA (unknown origin).
The species entered for data set [3] is Homo sapiens. In words: Selectivity for biotinylated human FXIa over plasmin (unknown origin).
The species entered for data set [4] is Homo sapiens. The experiment in a line: Selectivity for biotinylated human FXIa over trypsin (unknown origin).
The species entered for data set [5] is Homo sapiens. The experiment in a line: Selectivity for biotinylated human FXIa over thrombin (unknown origin).
For data set [6], the species on record is Homo sapiens. In words: Selectivity for biotinylated human FXIa over tPA (unknown origin).
The species entered for data set [7] is Homo sapiens. The experiment in a line: Selectivity for biotinylated human FXIa over plasma kallikrein (unknown origin).
Data set [8] concerns Plasma. In words: Anticoagulant activity in CaCl2-activated human plasma assessed as prolongation of activated partial thromboplastin time. In kind it is functional.
The species named for data set [9] is Homo sapiens. The experiment in a line: Selectivity for biotinylated human FXIa over beta-FXIIa (unknown origin).
The test system of data set [10] is Blood. The experiment in a line: Anticoagulant activity in human whole blood assessed as activated clotting time. The class given is functional.
The test system of data set [11] is Plasma. In words: Anticoagulant activity in rabbit plasma assessed as prolongation of activated partial thromboplastin time. In kind it is functional, Oryctolagus cuniculus.
The nature of data set [12]: Stability in human plasma assessed as half life at 40 uM measured for 48 hrs. The class given is ADME, cell-free.
In data set [13] the test system is Plasma. The experiment in a line: Anticoagulant activity in CaCl2-activated human plasma assessed as concentration required to achieve 5.1 fold prolongation of activated partial thromboplastin time. In kind it is functional.
The subject of data set [14] is Blood. In words: Anticoagulant activity in human blood assessed as concentration required to achieve the effects achieved with minimal therapeutic dose of UFH for prolongation of aPTT. The class given is functional.
The test system of data set [15] is Plasma. In words: Anticoagulant activity in CaCl2-activated human plasma assessed as concentration required to achieve 1.6 fold prolongation of activated partial thromboplastin time. The class given is functional.

Chain of Coagulation factor XI (P03951 19-387 limits assumed): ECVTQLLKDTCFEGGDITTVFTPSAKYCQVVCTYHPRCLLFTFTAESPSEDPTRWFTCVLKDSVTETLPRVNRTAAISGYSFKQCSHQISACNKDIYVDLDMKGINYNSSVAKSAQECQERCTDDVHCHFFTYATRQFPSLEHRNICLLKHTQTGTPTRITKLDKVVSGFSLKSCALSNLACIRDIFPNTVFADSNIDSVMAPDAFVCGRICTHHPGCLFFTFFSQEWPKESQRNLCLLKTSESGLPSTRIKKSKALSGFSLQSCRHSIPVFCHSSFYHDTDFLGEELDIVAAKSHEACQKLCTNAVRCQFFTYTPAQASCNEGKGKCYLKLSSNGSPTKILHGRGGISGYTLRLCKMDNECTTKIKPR
Chain of Coagulation factor XI (P03951 388-625 limits assumed): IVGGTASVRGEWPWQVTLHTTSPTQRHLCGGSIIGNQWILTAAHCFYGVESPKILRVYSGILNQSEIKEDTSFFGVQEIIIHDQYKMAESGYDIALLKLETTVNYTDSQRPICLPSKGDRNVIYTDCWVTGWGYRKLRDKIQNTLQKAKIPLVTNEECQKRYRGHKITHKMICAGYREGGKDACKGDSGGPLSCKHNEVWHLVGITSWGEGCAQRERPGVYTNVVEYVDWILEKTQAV

As a reminder, the pKi is the Ki on a negative log10 scale, so that one unit is a factor of ten. Consider `CC(C)[C@@H]1NC(=O)[C@H](CCCNC(=N)N)NC(=O)[C@H](C)NC(=O)[C@H](CC(N)=O)NC(=O)[C@H](CO)NC(=O)[C@@H](NC(=O)[C@H](CO)NC(=O)CNC(=O)[C@H](CCC(N)=O)NC(=O)[C@H](C)NC(=O)[C@H](CCCNC(=N)N)NC(=O)[C@H](CCCNC(=N)N)NC(=O)[C@@H]2CSCc3cccc(n3)CSC[C@@H](NC(=O)[C@@H](N)CO)C(=O)N2)CSCc2cccc(n2)CSC[C@@H](C(=O)N[C@@H](Cc2cnc[nH]2)C(=O)O)NC(=O)[C@H](C(C)C)NC1=O`, for which the “fold change (FC)” value in the data set on Plasma [1] is reported as 1.9. On Coagulation factor XI, the negative logarithm of the Ki (pKi) was 6.57.

A word on the half-life: it is how long it takes for the measured level to halve. With `CC[C@H](C)[C@@H]1NC(=O)[C@H](CCCNC(=N)N)NC(=O)[C@H]([C@@H](C)O)NC(=O)[C@H](CC(C)C)NC(=O)[C@H](C)NC(=O)[C@H](CO)NC(=O)[C@@H](NC(=O)[C@H](CCCNC(=N)N)NC(=O)[C@H](CCCNC(=N)N)NC(=O)[C@@H](NC(=O)[C@H](C)NC(=O)[C@H](CCCCN)NC(=O)[C@@H]2CSCc3cccc(n3)CSC[C@@H](NC(=O)[C@@H](N)CCC(N)=O)C(=O)N2)C(C)C)CSCc2cccc(n2)CSC[C@@H](C(=O)N2CCC[C@H]2C(=O)O)NC(=O)[C@H](C(C)C)NC1=O`, the Selectivity ratio in the data set listed under Homo sapiens [2], in the data set listed under Homo sapiens [3], in the data set filed under Homo sapiens [4], in the data set filed under Homo sapiens [5], in the data set listed under Homo sapiens [6] and in the data set listed under Homo sapiens [7] was > 1000 throughout. Moreover, in the data set listed under Homo sapiens [9], the Selectivity ratio is > 1000. Further, the “fold change (FC)” value with Plasma [1] was 2.7. The EC2 with Plasma [8] is 2.9 µM; with Plasma [11], 2 µM. For the same compound, the pKi on Coagulation factor XI is 9.05. The EC1.5 in the data set on Blood [10] came out at 12 µM. The half-life at 40 µM in data set [12] is 7.6 h.

For the compound `CSCC[C@H](NC(=O)[C@H](CO)NC(=O)[C@@H](NC(=O)[C@H](CCCNC(=N)N)NC(=O)[C@H](CCC(N)=O)NC(=O)[C@H](CCC(N)=O)NC(=O)[C@@H]1CSCC(=O)CSC[C@H](NC(=O)[C@@H](N)CC(C)C)C(=O)N[C@@H](CO)C(=O)N[C@@H](CO)C(=O)N2CCC[C@H]2C(=O)N[C@@H](CO)C(=O)N1)[C@@H](C)O)C(=O)N[C@H]1CSCC(=O)CSC[C@H](C(=O)N2CCC[C@H]2C(=O)O)NC(=O)[C@H](CCCNC(=N)N)NC(=O)[C@H](Cc2ccc(O)cc2)NC1=O`, the “fold change (FC)” value in the data set on Plasma [1] is 1.9. The pKi at Coagulation factor XI was 7.00.

As to `CC(C)C[C@H](NC(=O)[C@@H](NC(=O)[C@@H]1CSC/C=C/CSC[C@H](NC(=O)[C@@H](N)CCC(=O)O)C(=O)N[C@@H](CCCCN)C(=O)N[C@@H]([C@@H](C)O)C(=O)N2CCC[C@H]2C(=O)N[C@@H](CCCNC(=N)N)C(=O)N[C@@H](CCC(=O)O)C(=O)N1)[C@@H](C)O)C(=O)N[C@H](C(=O)N[C@@H](CCCNC(=N)N)C(=O)N[C@H]1CSC/C=C/CSC[C@@H](C(=O)N[C@@H](CCC(=O)O)C(=O)O)NC(=O)[C@H](CO)NC(=O)[C@H](Cc2cnc[nH]2)NC(=O)[C@H](C(C)C)NC1=O)[C@@H](C)O` (H-ECKTPRECTLTRCVHSCE-OH; linker 2-8, 13-17 via X1), the “fold change (FC)” value in the data set on Plasma [1] is listed as 2. On Coagulation factor XI, the pKi was 8.11.

In the case of `CSCC[C@@H]1NC(=O)CNC(=O)[C@H](CCCNC(=N)N)NC(=O)[C@@H](NC(=O)CN)CSCC(=O)CSC[C@@H](C(=O)N[C@H](C(=O)N[C@@H](CCCNC(=N)N)C(=O)N[C@H](C(=O)N[C@@H](CO)C(=O)N2CCC[C@H]2C(=O)N[C@@H](Cc2ccccc2)C(=O)N[C@H]2CSCC(=O)CSC[C@@H](C(=O)N3CCC[C@H]3C(=O)O)NC(=O)[C@H](CCCNC(=N)N)NC(=O)[C@H](C)NC2=O)[C@@H](C)O)C(C)C)NC(=O)[C@H](CO)NC1=O` (H-GCRGMSCVRTSPFCARCP-OH; linker 2-7, 14-17 via CH2COCH2), in the data set on Plasma [1], the “fold change (FC)” value worked out at 2.4. Besides, the pKi at Coagulation factor XI was 6.59.

For the compound `CC[C@H](C)[C@@H]1NC(=O)[C@H](CCCNC(=N)N)NC(=O)[C@H]([C@@H](C)O)NC(=O)[C@H](CC(C)C)NC(=O)[C@H](C)NC(=O)[C@H](CO)NC(=O)[C@@H](NC(=O)[C@H](CCCNC(=N)N)NC(=O)[C@H](CCCNC(=N)N)NC(=O)[C@@H](NC(=O)[C@H](C)NC(=O)[C@H](CCCCN)NC(=O)[C@H](CO)NC(=O)[C@H](CO)NC(=O)[C@@H](N)CCC(N)=O)C(C)C)CSSC[C@@H](C(=O)N2CCC[C@H]2C(=O)O)NC(=O)[C@H](C(C)C)NC1=O` (H-QSSKAVRRCSALTRIVCP-OH; disulfide 9-17), the EC2 in the data set with Plasma [8] was 4.9 µM. For the same compound, the negative-log Ki (pKi) on Coagulation factor XI is 8.59.

Take `CC[C@H](C)[C@@H]1NC(=O)[C@H](CCCNC(=N)N)NC(=O)[C@H]([C@@H](C)O)NC(=O)[C@H](CC(C)C)NC(=O)[C@H](C)NC(=O)[C@H](CO)NC(=O)[C@@H](NC(=O)[C@H](CCCNC(=N)N)NC(=O)[C@H](CCCNC(=N)N)NC(=O)[C@@H](NC(=O)[C@H](C)NC(=O)[C@H](CCCNC(=N)N)NC(=O)[C@H](CO)NC(=O)[C@H](CO)NC(=O)[C@@H](N)CCC(N)=O)C(C)C)CSSC[C@@H](C(=O)N2CCC[C@H]2C(=O)O)NC(=O)[C@H](C(C)C)NC1=O` (H-QSSRAVRRCSALTRIVCP-OH; disulfide 9-17): in the data set on Plasma [8], the EC2 is 3.1 µM. For the same compound, the pKi on Coagulation factor XI was 8.62.

Consider `CC[C@H](C)[C@@H]1NC(=O)[C@H](CCCNC(=N)N)NC(=O)[C@H]([C@@H](C)O)NC(=O)[C@H](CC(C)C)NC(=O)[C@H](C)NC(=O)[C@H](CO)NC(=O)[C@@H](NC(=O)[C@H](CCCNC(=N)N)NC(=O)[C@H](CCCNC(=N)N)NC(=O)[C@@H](NC(=O)[C@H](C)NC(=O)[C@@H](N)CCCNC(=N)N)C(C)C)CSSC[C@@H](C(=O)N2CCC[C@H]2C(=O)O)NC(=O)[C@H](C(C)C)NC1=O` (H-RAVRRCSALTRIVCP-OH; disulfide 6-14), for which the Activity in the data set with Plasma [13] turned out to be 45 µM; in the data set with Blood [14], 0.77 µM; in the data set on Plasma [15], 0.34 µM. Further, in the data set on Plasma [8], the EC2 stood at 1.5 µM. The negative-log Ki (pKi) on Coagulation factor XI is 8.55.

As for `CC(C)C[C@@H]1NC(=O)CNC(=O)[C@H](CCC(N)=O)NC(=O)[C@@H](NC(=O)[C@@H](N)CCCNC(=N)N)CSCC(=O)CSC[C@@H](C(=O)N[C@@H](Cc2ccccc2)C(=O)N[C@H](C(=O)N[C@@H](CO)C(=O)N[C@@H](CC(N)=O)C(=O)N[C@@H](CCCCN)C(=O)N[C@@H](Cc2ccc(O)cc2)C(=O)N[C@H]2CSCC(=O)CSC[C@@H](C(=O)N3CCC[C@H]3C(=O)O)NC(=O)[C@H](CCCNC(=N)N)NC(=O)[C@H](C)NC2=O)[C@@H](C)O)NC(=O)[C@H](Cc2c[nH]c3ccccc23)NC1=O` (H-RCQGLWCFTSNKYCARCP-OH; linker 2-7, 14-17 via CH2COCH2), in the data set on Plasma [1], the “fold change (FC)” value is 3.2. The pKi at Coagulation factor XI is 7.21.

For the compound `CC[C@H](C)[C@@H]1NC(=O)[C@@H](NC(=O)[C@H](CCCNC(=N)N)NC(=O)[C@@H](NC(=O)[C@H](CC(C)C)NC(=O)[C@@H](NC(=O)[C@@H]2CSC/C=C/CSC[C@H](NC(=O)[C@@H](N)CO)C(=O)N[C@@H](CCC(=O)O)C(=O)N[C@@H]([C@@H](C)O)C(=O)N3CCC[C@H]3C(=O)N[C@@H](CCC(N)=O)C(=O)N[C@@H](C)C(=O)N2)[C@@H](C)O)[C@@H](C)O)CSC/C=C/CSC[C@@H](C(=O)N[C@@H](CC(N)=O)C(=O)O)NC(=O)[C@H](CCC(N)=O)NC(=O)[C@H]([C@@H](C)O)NC1=O` (H-SCETPQACTLTRCITQCN-OH; linker 2-8, 13-17 via X1), in the data set on Plasma [1], the “fold change (FC)” value is 1.7. The pKi on Coagulation factor XI was 7.14.

On to `CC(C)C[C@@H]1NC(=O)[C@H](CCC(N)=O)NC(=O)[C@@H]2CCCN2C(=O)[C@@H](NC(=O)[C@@H](N)CO)CSC/C=C/CSC[C@@H](C(=O)N[C@@H](CO)C(=O)N[C@@H](CCCNC(=N)N)C(=O)N[C@H](C(=O)N[C@@H](CCCNC(=N)N)C(=O)N[C@H]2CSC/C=C/CSC[C@@H](C(=O)N[C@@H](CO)C(=O)O)NC(=O)[C@H](CC(=O)O)NC(=O)[C@H](CC(C)C)NC(=O)[C@H](C(C)C)NC2=O)[C@@H](C)O)NC(=O)[C@H](Cc2ccc(O)cc2)NC(=O)[C@H](CCC(=O)O)NC1=O` (H-SCPQLEYCSRTRCVLDCS-OH; linker 2-8, 13-17 via X1), for which, in the data set with Plasma [1], the “fold change (FC)” value was 1.6. In addition, the pKi on Coagulation factor XI was 7.51.
